The record followed here is paper PMC9252919, “Controlled masking and targeted release of redox-cycling ortho-quinones via a C–C bond-cleaving 1,6-elimination” (Nature Chemistry, 2022).

Molecules are shown by their SMILES.

In one data set the test system is AML cell line MOLM-13. Put plainly: Viability assay with small-molecule prodrugs, MOLM-13. The note with it: 5 µM, 24 h. It counts as cell-based. As to the method: (§1) For assays assessing cytotoxicity of β-lapachone versus small-molecule prodrugs, antibodies and ADCs, suspension cells were plated into 24-well plates at a density of 2.5 × 10^5 cells ml^−1 in 240 µl. Stocks of ADC or antibody in PBS were normalized to 12.5 µM. Serial dilutions of compound were made up in PBS. Then, 60 µl of each stock of either PBS or compound in PBS was added to the cells to achieve the desired final concentration. After the specified incubation time, toxicity was assessed by counting of live cells using the trypan blue exclusion method with a Countess II Automated Cell Counter (ThermoFisher Scientific) according to the manufacturer’s instructions. Cell viability was determined by dividing the average live cell number of treated wells by the average live cell number for control wells treated with PBS only. IC50 values were calculated using GraphPad Prism software. Note: for the assay performed over 96 h, 5% human serum was added to media instead of 10% fetal bovine serum, to limit non-specific antibody internalisation. This had little effect on ADC toxicity.

The subject of data set [1] is HL-60 cells. Put plainly: Lysosomal deacidification and inhibition assay. It counts as cell-based, human. The note with it: HL-60, NH4Cl 30 mM. As to the method:
Assays to assess the effect of lysosomal activity on prodrugs were performed as follows: HL-60 cells were plated into 96-well plates at a concentration of 2.5 × 10^5 cells ml^−1 in 180 µl media. Cells were treated with 10 µl of a stock of NH4Cl in PBS (to obtain an in-plate concentration of 3 or 30 mM), 10 µl of a dilution of a DMSO stock of E64d in PBS (to obtain an in-plate concentration of 30 μM), PBS only or a dilution of DMSO in PBS. Cells were incubated for 30 min. Following this, 10 µl of a stock of test compound made by dilution of a DMSO stock into media was added. DMSO was present in-plate at a maximum of 0.2%. Cells were incubated overnight for 16 h. Following incubation, media was replaced with media containing CellTiter-Blue (Promega) in 1:4 dilution and the plates were incubated for 6 h. The fluorescence of the plates was recorded (excitation, 555 nm; emission, 585 nm; MiniMax i3x Reader, Molecular Devices). Cell viability was calculated by division of the fluorescence intensity of treated wells by that of the average fluorescence intensity of the relevant negative control wells.

The next data set relates to CD33+ HL-60 cells. Put plainly: Viability assay with small-molecule prodrugs and ADCs, HL-60. The note with it: Homo sapiens, read-out: IC50 against CD33+ HL-60 cells. It counts as cell-based, human. As to the method: as §1
Data set [2] can be described thus: Quantitative LC-MS/MS of β-lapachone in xenograft mouse tumour. Format: in vivo, NOD-SCID mice. The note with it: fixed tumour homogenate of mice treated with ADC Gem-HC-239iC-BL. The procedure: Concentrations of β-lapachone in formalin-fixed tumour and the respective formol supernatant were quantified using reversed-phase ultra-high-performance liquid chromatography tandem mass spectrometry as previously described. Care was taken during sample handling to minimize exposure to light, and amber glass/plastic and foil wrapping were used where possible. Tumour tissue was homogenized to a concentration of 200 mg ml^−1 with PBS. An aliquot of homogenate or formol supernatant sample was transferred to a fresh tube with cryptotanshinone (internal standard) in ethyl acetate for liquid–liquid extraction. Samples were mixed, centrifuged and the ethyl acetate layer transferred to a 96-well plate, evaporated and reconstituted in 0.1% formic acid in acetonitrile:water 70:30. PBS was used as the surrogate matrix for calibration standards and quality-control samples. The calibration ranges were 0.25–250 ng g^−1 (homogenate) and 0.05–50 ng ml^−1 (formol). The analytical batches included quality-control samples at low, medium and high concentrations. The analysis was performed on a Shimadzu Nexera X2 UHPLC coupled to a Sciex TripleTOF 6600 mass spectrometer. The extracted samples were injected onto a Phenomenex Kinetex EVO C18, 1.7 µm, 50 × 2.1 mm analytical column, at 35 °C. […]

The test system of data set [3] is HL-60 cells. Nature of the data set: Cellular ROS detection with 2',7'-dichlorodihydrofluorescein diacetate. The note with it: 50 µM, 15 min. Format: cell-based, human. The procedure: To determine ROS generation by compounds in leukaemia cells, HL-60 cells were washed with PBS, then incubated in serum-free media (10 ml of 1.6 × 10^6 ml^−1 cell concentration) with 2,7-dichlorofluorescin diacetate at 20 µM for 30 min at 37 °C. Following this, the cells were washed with PBS and resuspended in Fluorbrite–DMEM media (ThermoFisher) (10 ml). Then, 450 µl of the cell mixture was seeded into wells of a clear flat-bottomed 12-well plate, to which 50 µl of a 10× stock of the compounds in media had been already added, to achieve a final compound concentration of 50 µM. The 10× media stocks were made by 100-fold dilution of DMSO compound stocks, to ensure a final in-plate DMSO concentration of 0.1%. DMSO 0.1% only was used as a negative control. […] After plating the cells were immediately incubated at 37 °C in the dark for 15 min before the fluorescence of the wells (excitation, 485 nm; emission, 535 nm) was recorded (MiniMax i3x Imager, Molecular Devices).

For data set [4], the system named is range of cancer cell lines, including leukaemia, breast, colon and cervical cancer. Nature of the data set: Viability assay (CellTiter-Blue) with small-molecule lapachone models. The note with it: 48 h. It counts as cell-based. As to the method: Assays assessing cytotoxicity of β-lapachone and derivatives were performed by CellTiter-Blue assay (Promega) according to the manufacturer’s instructions. Briefly, adherent cancer-cell lines were plated at 20,000 cells per well in 96-well plates or suspension cell lines were plated at a concentration of 2 × 10^5 cells ml^−1 in 24-well plates. Compound stocks in media were made by dilution of DMSO stocks containing the compound of interest to obtain a final in-plate DMSO concentration of only 0.1%. Incubation was performed for 48 h. Following incubation, media was replaced with media containing CellTiter-Blue (Promega) in 1:10 dilution and the plates were incubated for 1.5–4 h. The fluorescence of the plates was recorded (excitation, 555 nm; emission, 585 nm; MiniMax i3x Reader, Molecular Devices). Cell viability was calculated by division of the fluorescence intensity of treated wells by that of the calculated average fluorescence intensity of replicate negative control wells containing cells with 0.1% DMSO only. IC50 values were calculated using GraphPad Prism 8 software.

Turning to `CC1(C)CCC2=C(O1)c1ccccc1C(=O)C2=O` [Compound 1, β-lapachone, reference compound], the “toxicity to MOLM-13 at 5 µM” value with AML cell line MOLM-13 was “complete cell death”. For the same molecule, the “toxicity with NH4Cl at 30 mM” value with HL-60 cells [1] is on record as “increase in toxicity”. For the same molecule, in the data set on CD33+ HL-60 cells, the IC50 is about 1 µM. Also, the “concentration of 1 in tumour tissue” value in data set [2] was 0.327 ng/g.
As to `CC1(C)CCC2=C(O1)c1ccccc1C(O)(Cc1ccccc1)C2=O` (stereo not drawn) [Compound 24, benzyl β-lapa-ketol], the “ROS generation in HL-60” value in the data set with HL-60 cells [3] is recorded as “did not generate detectable ROS”. Besides, the “decrease in toxicity relative to 1” value in data set [4] was over 20 fold.
